Measured values taken from US11534457B2, “Use of dextran sulfate” (priority 2017, dated 2022).

Tested on: trabecular meshwork (TM) scarring in glaucomatous eyes
Assay: TGF-β induced glaucoma in rats, trabecular meshwork scarring (laminin, fibronectin immunohistochemistry)
Assay type: in vivo, Sprague Dawley rats
Procedure: Glaucoma was induced in adult male Sprague Dawley rats by repeat twice weekly intracameral (IC) injections of transforming growth factor-β (TGF-β) to increase intraocular pressure (IOP). Sustained increases in IOP (after two weeks) leads to death of retinal ganglion cells (30-40%). LMW-DS was administered at 15 mg/kg by daily subcutaneous injection […] to assess RGC protection compared to controls.
Group 1 n=12 rats; 24 eyes […] TGF-β (twice weekly for 28 days) between day 0 and day 28+ daily subcutaneous administration of dextran sulfate from day 14 to day 28.
Group 2 n=8 rats; 16 eyes IOP+IC TGF-β (twice weekly for 28 days) between day 0 and day 28+ daily subcutaneous administration of vehicle (saline) from day 14 to day 28.
Measured End-Points • IOP twice weekly throughout study from day 0 to day 28; • Immunohistochemistry for counting retinal ganglion cell (RGC) that are immunoreactive for brain-specific homeobox/POU domain protein 3A (Brn3a) at day 28 (RGC survival); • Immunohistochemistry for laminin and fibronectin to evaluate scarring in the trabecular meshwork at day 28 in Groups 1 and 2; • Anterior segment and optical coherence tomography (OCT) imaging at day 28 to examine the angle and the thickness of the retinal nerve fiber layer comprising RGC axons; and • Body weight at day 28. […]

Substance: low molecular weight dextran sulfate [LMW-DS]
- immunoreactive laminin in the angle (TM scarring) vs saline (15 mg/kg daily s.c. day 14 to day 28, P<0.001): significantly reduced
- immunoreactive fibronectin in the angle (TM scarring) vs saline (15 mg/kg daily s.c. day 14 to day 28, P<0.01): significantly reduced
